Experimental data as given in patent publication US8975246B2, “Bile acid or bile salt fatty acid conjugates” (Galmed Research and Development Ltd., priority 2001, dated 2015).

Test system: Inbred C57J/L mice
Test: Liver lipid/protein ratio, mice on high fat lithogenic diet
Assay type: in vivo
Settings: BAFAC 150 mg/Kg daily by gavage, 5 weeks
Experimental: Inbred C57J/L mice, 4 weeks old and weighing approx. 20 gm (Jackson Lab. Maine, USA) were used. They were fed for 5 weeks a high fat lithogenic diet consisting of: Cholesterol 1%, Cholic Acid 0.5%, lard 10%, butter 6%, palmitic acid 1.2% and corn oil 2% added (w/w) to their regular diet. In addition to the diet the animals were given daily, by gavage, either a BAFAC (150 mg/Kg) suspended in saline or an equal volume of saline only. The BAFACs were conjugates of cholic acid (at position 3) with either Palmitic Acid (C-16) or Arachidic Acid (C-20) or Behenic Acid (C-22) using an amide bond. The controls (n=5) received saline, the test animals received either the C-16 conjugate (n=5), the C-20 conjugate (n=5) or the C-22 conjugate (n=3). After 5 weeks, following an overnight fast, the animals were anesthetized using ketamine, the liver was removed, and the animals were sacrificed by ketamine overdose. A 0.5 gm sample of liver was homogenized in 5 ml of buffered saline. Liver lipids were extracted from the homogenate by the Folch method using chloroform:methanol (2:1, vol/vol). Half a ml of the homogenate were extracted in 5 ml of the Folch solution. After evaporation of the solvent the lipids were weighed and reevaporated several times until constant weight was obtained. The proteins were quantified in another aliquot of the homogenate according to the method of Bradford. (Bradford M. M., Annal Biochem. 1976, 72:248).
The lipid protein ratio (mg/mg) was calculated. The results for each group are given as means (+St. Dev.) The group values were: […]

SMILES | lipid protein ratio in liver, mean (+St. Dev.) [mg/mg]
CCCCCCCCCCCCCCCCCCCCCC(=O)NC1CCC2(C)C(C1)CC(O)C1C2CC(O)C2(C)C(C(C)CCC(=O)O)CCC12 (centres unmarked) [C-22 BAFAC] | 3.00 ± 1.08
CCCCCCCCCCCCCCCC(=O)NC1CCC2(C)C(C1)CC(O)C1C2CC(O)C2(C)C(C(C)CCC(=O)O)CCC12 (centres unmarked) [C-16 BAFAC] | 2.25 ± 1.20
